Reference: patent US20090004497A1, “Wood Preservative Formulations Comprising Rh-287” (priority 2006, published 2009)
Several values for one entry are separate records, joined by “and”; a condition that tells them apart may be missing. Identical values can stand only once.

Tested on: decay organisms
Assay: soil contact veneer exposure test (Scots pine sapwood veneers part buried in damp compost, pulled by hand until failure)
Conditions: for Half lives for chemicals tested as solutions in acetone, With RH-287 added / Half lives for chemicals tested as solutions in acetone, No addition (average time for failure to occur) / Half lives, With RH-287 added, expected value in parentheses / positive synergy: actual average time to failure compared with the estimated one: Example 1; for Half lives for chemicals tested as solutions in acetone, With RH-287 added: 1.00% fungicide plus 1.00% RH-287 in acetone; for Half lives for chemicals tested as solutions in acetone, No addition (average time for failure to occur): 2.00% fungicide alone in acetone, dip treated veneers, 6 replicates, compost about 30° C.; for Half lives, With RH-287 added, expected value in parentheses: expected additive value for 1.00% fungicide plus 1.00% RH-287, midway between the two 2.00% values; for positive synergy: actual average time to failure compared with the estimated one: combination of RH-287 with co-biocide, 1.00% each in acetone
Description: It is preferable that the thickness of the veneers be greater than 0.1 mm, as veneers of lesser thickness can often be pulled apart by hand without undergoing exposure to decay organisms. Veneers which are thicker than 0.4 may take an excessive amount of time to fail the exposure test. In one embodiment, the thickness of the veneers is about 0.2 mm and the wood is the sapwood of the Scots pine (Pinus sylvestris). Other woods and thicknesses can be used. […] For example, 0.2 mm thick Scots pine sapwood veneers which are exposed as outlined below generally fail in 5 weeks or less. An example of convenient width and length dimensions are 15×50 mm. However, width and length are not critical, although very large or small length or width dimensions may be difficult to handle.
Accordingly, the test of the present invention comprises testing the integrity of a veneer after exposure to a decay-inducing environment. In one embodiment, this environment is damp compost in which decay organisms are present and water is present at just above the water holding capacity of the compost. If desired, other media can be used, and the test can be conducted at water contents which are below, at, or above the water-holding capacity of the media.
In general, the integrity of the veneer is inversely related to the length of exposure to the decay promoting environment. The integrity of the veneer can be tested by applying a force to the veneer and noting whether or not the veneer breaks. Thus, if wood preservative agents are applied to the veneers, these veneers would be expected to withstand longer exposure to the environment without breaking compared to control veneers without breaking.
The force applied to the veneers is preferably a force which pulls the two ends in opposite directions. The force can be applied by the use of an instrument or manually. If there is significant decay the veneer will break, generally near the junction between the portion submerged in the decay accelerating medium and the portion exposed to air. If the force is applied manually, it is preferable that the same individual conduct the test at the various exposure time points.
Veneers of Scots pine Pinus sylvestris (0.2 mm thick, 50×15 mm) sapwood are cut from test blocks as described in EN 113, a known standard test method in the European timber industry. The veneers were cut such that both late wood and early wood were present in each veneer. RH-287 was tested in combination with the following biocides: chlorothalonil, fenpropimorph, propiconazole, copper ( as copper naphthenate ), tridemorph, fenarimol, cyproconazole, Imazalil and dichlorophen.
Test solutions were prepared and sets of veneers were dip treated such that there were 6 replicate veneers for each treatment under investigation. Additionally six veneers were dip treated in deionised water to act as water controls. Being thin, the timber veneers dried quickly. Plastic containers (approximately 350×220 mm by at least 60 mm high) were part filled with John Innes Number 2 potting compost at a little above its water holding capacity. The veneers for a particular test were placed in six rows within a container such that approximately half the veneer was below the compost and half above. The veneers were placed in the compost such than those given a particular treatment were distributed throughout the container and were not grouped together. The containers, compost and veneers were weighed then incubated at about 30° C. and near 100% relative humidity in an incubator. Each week during the test the assembly was reweighed and deionised water added to bring it back to its original mass. After 3 weeks each veneer was examined in turn. It was held between the fingers at each end and pulled to see if it could be broken. If it could be pulled apart a failure was recorded. If the veneer was sound, this was recorded and the veneer was returned to its original position. […]

[1] = Example 3, solutions in acetone
[2] = Example 4, solutions in acetone

| Molecule | Half lives for chemicals tested as solutions in acetone, With RH-287 added | Half lives for chemicals tested as solutions in acetone, No addition (average time for failure to occur) | Half lives, With RH-287 added, expected value in parentheses | other results |
| --- | --- | --- | --- | --- |
| OC(c1ccc(Cl)cc1)(c1cncnc1)c1ccccc1Cl (racemic) [Fenarimol, (±)-2,4′-dichloro-α-(pyrimidin-5-yl) benzhydryl alcohol] | 17.17 weeks | 5.50 weeks | (15.34 weeks) |  |
| CC(Cc1ccc(C(C)(C)C)cc1)CN1C[C@@H](C)O[C@@H](C)C1 (mixture of isomers) [Fenpropimorph, (±)-cis-4-[3-(4-tert-butylphenyl)-2-nethylpropyl]-2,6-dimethyl=morpholine] | 21.17 weeks | 4.50 weeks | (14.84 weeks) | positive synergy: actual average time to failure compared with the estimated one: most marked |
| CCCC1COC(Cn2cncn2)(c2ccc(Cl)cc2Cl)O1 (racemic) [Propiconazole, (±)-1-[2-(2,4-dichlorophenyl)-4-propyl-1,3-dioxolan-2-ylmethyl-=1H-1,2,4-triazol] | 20.50 weeks | 4.50 weeks | (14.84 weeks) |  |
| N#Cc1c(Cl)c(Cl)c(Cl)c(C#N)c1Cl [Chlorothalonil, tetrachloroisophthalonitrile] | 22.50 weeks | 12.5 weeks and 12.50 weeks |  | Half lives for chemicals tested as solutions in acetone, No addition (average time for failure to occur) (listed as chlorothalonil): 12.5 weeks; Half lives, With RH-287 added, expected value in parentheses (listed as chlorothalonil): about 18.84 weeks |
| CC(C1CC1)C(O)(Cn1cncn1)c1ccc(Cl)cc1 (stereo not drawn) [Cyproconazole, (2RS,3RS;2RS,3SR)-2-(4-chlorophenyl)-3-cyclopropyl-1-=(1H-1,2,4-trazol-1-yl)butan-2-ol] | 22.00 weeks | 5.17 weeks | (15.17 weeks) | positive synergy: actual average time to failure compared with the estimated one: most marked |
| Oc1ccc(Cl)cc1Cc1cc(Cl)ccc1O [Dichlorophen, 4.4′-dichloro-2,2′-methylenediphenol] | 24.17 weeks | 16.00 weeks | (20.59 weeks) | Half life for 0.8% fungicide plus 0.8% RH-287, expected value in parentheses (Example 3, expected additive value): {13.83 weeks}; Half life for 0.8% fungicide plus 0.8% RH-287 [1]: 15.33 weeks; Half life for fungicide at 0.8% active ingredient [1]: 8.67 weeks; Half life for fungicide at 1.60% active ingredient (ai) [1]: 10.83 weeks |
| CCCCCCCCn1sc(Cl)c(Cl)c1=O [RH-287, 4,5 dichloro-2-n-octyl-4-isothiazolin-3-one] |  | 25.17 weeks |  | Half life for fungicide at 2.00% active ingredient (ai) (Example 2, solutions in acetone): 22.50 weeks; Half life for fungicide at 0.8% active ingredient [1]: 10.00 weeks; Half life for fungicide at 1.60% active ingredient (ai) [1]: 16.83 weeks; Half life for fungicide at 0.8% active ingredient [2]: 12.17 weeks; Half life for fungicide at 1.60% active ingredient (ai) [2]: 16.67 weeks; relationship between concentration of RH-287 and veneer half life (Example 5, up to about 2% RH-287 in acetone (FIG. 1)): corresponding increase in the half life |
| CCCCCCCCCCCCCN1CC(C)OC(C)C1 (stereo not shown) [Tridemorph, 4-alkyl-2,6-dimethylmorpholine] | 17.50 weeks | 4.33 weeks | (14.75 weeks) |  |
| Copper naphthenate [Copper (as Copper Naphthenate)] | 21.50 weeks | 16.67 weeks |  |  |
